Tested on: allergic reaction at the conjunctiva sites (vascular hyperpermeability) of Wistar rats
Experiment: Rat passive allergic conjunctivitis model, Evans blue dye leakage (absorbance at 620 nm)
Type: in vivo
Settings: Example 2, FIG. 1, presence or absence of the component
Excerpt: As a trigger solution was used a solution prepared by mixing equal volumes of 1% (w/v) ovalbumin (Grade V; manufactured by Sigma-Aldrich Co. LLC)/physiological saline (manufactured by Otsuka Pharmaceutical Co., Ltd.) and 1% (w/v) Evans blue (manufactured by Wako Pure Chemical Industries, Ltd.)/physiological saline.
As an extraction solution was used an aqueous solution of acetone (manufactured by Wako Pure Chemical Industries, Ltd.)/0.5% (w/v) sodium sulfate (manufactured by Wako Pure Chemical Industries. Ltd.) (7:3).
After 48 h, 1 mL of the trigger solution was intravenously administered to trigger an allergic reaction at the conjunctiva sites. Then, each test solution was dropped onto the eyes at 15 min before and immediately before triggering the allergic reaction (the total of 2 times). […] The overnight extraction solution was centrifuged to recover a supernatant. Absorbance of the supernatant was measured at 620 nm.
Vascular hyperpermeability caused by an allergic reaction results in leakage of Evans blue. Thus, the less the amount of leakage of the dye, the more the vascular hyperpermeability is suppressed. This should be an indicator of the antiallergic effects. The amount of leakage of dye per tissue unit (gig/g) was calculated by using a predetermined standard curve. A dye amount ratio was calculated using the following equation to give an indicator of the suppression effects. […]

Row | SMILES | Contribution of the component to the antiallergic action when combined with ketotifen fumarate (group 6 compared with group 7, 8 or 10)
1 | O=C([O-])O.[Na+] [sodium bicarbonate] | can contribute to an antiallergic action
2 | [Cl-].[Na+] [sodium chloride] | can contribute to an antiallergic action

Reference: patent publication US20180311225A1, “EXTERNAL PREPARATION” (TEIKA PHARMACEUTICAL CO., LTD., priority 2015, published 2018)
